One data set deals with Botrytis cinerea. The data set is described as follows: In vivo preventive test on Botrytis cinerea (grey mould) on gherkin, Examples B, Q1 and R2. The settings on record: Botrytis cinerea, 500 ppm of active ingredient, preventive spray, evaluated 4 to 5 days after inoculation, read-out: efficacy.
Another data set deals with Puccinia recondita. The data set is described as follows: In vivo preventive test on Puccinia recondita (brown rust on wheat), Examples C and R3. The settings on record: Puccinia recondita, 264 h; 500 ppm of active ingredient; wheat, preventive spray, evaluated 11 days after inoculation; read-out: efficacy.
The next data set relates to Venturia inaequalis. The data set is described as follows: In vivo preventive Venturia test (apples), Example J. Particulars: 240 h, read-out: efficacy.
The next data set deals with Uromyces appendiculatus. The data set is described as follows: In vivo preventive test on Uromyces appendiculatus (bean rust), Examples G and R7. The settings on record: 264 h, 500 ppm of active ingredient, bean, preventive spray, evaluated 11 days after inoculation, read-out: efficacy.
The next data set relates to Alternaria solani. The data set is described as follows: In vivo preventive Alternaria test (tomatoes), Example H. Particulars: 72 h, 100 ppm of active ingredient, preventive spray, evaluated 3 days after inoculation, read-out: efficacy.
A further data set deals with Pyricularia oryzae. The data set is described as follows: whole plant or invertebrate. The data set is classed as in vivo. The settings on record: 192 h, read-out: efficacy.
For another data set, the system named is Pyrenophora teres. The data set is described as follows: In vivo preventive test on Pyrenophora teres (net blotch on barley), Examples D, Q2 and R4. Particulars: Pyrenophora teres, 336 h, 500 ppm of active ingredient, preventive spray, evaluated 14 days after inoculation, read-out: efficacy.
The subject of another data set is Phakopsora pachyrhizi. The data set is described as follows: In vivo preventive Phakopsora test (soybeans), Example I. The settings on record: 168 h, 100 ppm of active ingredient, preventive spray, evaluated 7 days after inoculation, read-out: efficacy.
The subject of the next data set is Alternaria brassicae. The data set is described as follows: In vivo preventive test on Alternaria brassicae (leaf spot on radish), Examples A and R1. The settings on record: Alternaria brassicae, 144 h, 500 ppm of active ingredient, preventive spray, evaluated 6 days after inoculation, read-out: efficacy.
The subject of a further data set is Sphaerotheca fuliginea. The data set is described as follows: In vivo preventive test on Sphaerotheca fuliginea (powdery mildew on cucurbits), Examples F and R6. Particulars: Podosphaera fuliginea, 360 h; 500 ppm of active ingredient; gherkin, preventive spray, evaluated 15 days after inoculation; read-out: efficacy.
In another data set the test system is Septoria tritici. The data set is described as follows: In vivo preventive test on Septoria tritici (leaf spot on wheat), Examples E, Q3 and R5. The settings on record: Zymoseptoria tritici, 576 h, 500 ppm of active ingredient; wheat, preventive spray, evaluated 24 days after inoculation; read-out: efficacy.
Data set [1] in a line: Measurement of LogP values by HPLC on reversed phase columns (EEC directive 79/831 Annex V.A8). The format is physicochemical. Particulars: method [a]: LC-UV, acidic range, 0.1% formic acid in water and acetonitrile as eluent; Table 1. The method, then: Measurement of Log P values was performed as outlined above.
Data set [2] has as its system Blumeria graminis fsp. hordei. The data set is described as follows: In vivo preventive Blumeria test (barley), Example K. Particulars: 168 h, 500 ppm of active ingredient, preventive spray, evaluated 7 days after inoculation, read-out: efficacy. The source says: After the spray coating has been dried, the plants are dusted with spores of Blumeria graminis fsp. hordei.

The next data set deals with Fusarium graminearum. The data set is described as follows: whole plant or invertebrate. The settings on record: in Hordeum vulgare, 120 h, read-out: efficacy. The format is in vivo.

The results in this text go back to patent US10231453B2, “5-substituted imidazole derivatives” (BAYER CROPSCIENCE AKTIENGESELLSCHAFT, priority 2015, dated 2019).

One may read the chromatographic logP as lipophilicity estimated from chromatographic retention. A lower chromatographic logP goes with a more hydrophilic compound.

The structures appear in SMILES notation.

Protocol for Venturia inaequalis: After the spray coating has dried on, the plants are inoculated with an aqueous conidia suspension of the causal agent of apple scab (Venturia inaequalis) and then remain for 1 day in an incubation cabinet at approximately 20° C. and a relative atmospheric humidity of 100%.
The plants are then placed in a greenhouse at approximately 21° C. and a relative atmospheric humidity of approximately 90%.
The test is evaluated 10 days after the inoculation.

Take `OC(Cc1cc(Cl)ncc1Cl)(Cn1cncc1Cl)C1(Cl)CC1` (stereo not drawn) [Example I-17]: the pest or weed control at 500 ppm with Botrytis cinerea is 80 to 89%; in the data set on Puccinia recondita it was 80 to 89%; in the data set with Uromyces appendiculatus, 90 to 100%; with Pyricularia oryzae, 90 to 100%; with Pyrenophora teres it was 90 to 100%; in the data set on Alternaria brassicae, 90 to 100%. Further, the pest or weed control at 500 ppm in the data set on Sphaerotheca fuliginea is 90 to 100%; in the data set on Septoria tritici, 90 to 100%; in data set [2] it was 70 to 79%. Also, the pest or weed control at 100 ppm in the data set with Venturia inaequalis, with Alternaria solani and in the data set on Phakopsora pachyrhizi was 90 to 100% in each case. Moreover, the chromatographic logP in [1] stood at 2.18.

For the compound `CSc1cncn1CC(O)(Cc1ccccc1Cl)C1(Cl)CC1` (stereo not drawn) [Example I-22], the pest or weed control at 500 ppm with Puccinia recondita is 90 to 100%; in the data set with Uromyces appendiculatus it was 90 to 100%; in the data set with Pyricularia oryzae it was 80 to 89%; in the data set on Pyrenophora teres, 80 to 89%; with Alternaria brassicae it was 80 to 89%; in the data set on Sphaerotheca fuliginea, 90 to 100%. The pest or weed control at 500 ppm (in the data set on Septoria tritici; in [2]) was 90 to 100% each time. The same compound displayed a chromatographic logP in [1] of 2.08.

Take `OC(Cc1cccnc1Cl)(Cn1cncc1Br)C1(Cl)CC1` (stereo not drawn) [Example I-25]: the pest or weed control at 500 ppm with Botrytis cinerea lay within 90 to 100%; in the data set with Puccinia recondita, 80 to 89%; in the data set with Uromyces appendiculatus, 90 to 100%; with Pyricularia oryzae, 70 to 79%; with Pyrenophora teres it was 80 to 89%; in the data set with Sphaerotheca fuliginea it was 90 to 100%. For the same compound, the pest or weed control at 500 ppm in the data set with Septoria tritici fell in the range of 90 to 100%; in [2], 70 to 79%. Also, in [1], the chromatographic logP is 1.56.

On to `N#Cc1cncn1CC(O)(Cc1ccccc1Br)C1(Cl)CC1` (stereo not drawn) [Example I-40], for which the pest or weed control at 500 ppm with Botrytis cinerea is 90 to 100%; in the data set with Puccinia recondita, 80 to 89%; in the data set on Uromyces appendiculatus, 90 to 100%; with Pyricularia oryzae, 70 to 79%; in the data set on Pyrenophora teres it was 70 to 79%; with Alternaria brassicae, 80 to 89%. The pest or weed control at 500 ppm (in the data set with Sphaerotheca fuliginea; in the data set with Septoria tritici; in [2]) was 90 to 100% each time. In addition, the values for the pest or weed control at 100 ppm in the data set with Venturia inaequalis, in the data set with Alternaria solani and in the data set on Phakopsora pachyrhizi were 80 to 89%, 90 to 100% and 90 to 100%, respectively.

Consider `OC(Cc1ccc(Br)cc1Cl)(Cn1cncc1Cl)C1(Cl)CC1` (stereo not drawn) [Example I-43], for which the pest or weed control at 500 ppm in the data set on Botrytis cinerea, in the data set with Puccinia recondita, in the data set with Uromyces appendiculatus, in the data set with Pyrenophora teres, with Sphaerotheca fuliginea and in the data set on Septoria tritici was 90 to 100% in each case. Also, in data set [2], the pest or weed control at 500 ppm lay within 80 to 89%. Further, the pest or weed control at 100 ppm in the data set on Alternaria solani was 80 to 89%; in the data set with Phakopsora pachyrhizi, 90 to 100%.

As to `N#Cc1cncn1CC(O)(Cc1ccc(Cl)cc1)C1(Cl)CC1` (stereo not drawn) [Example I-64], the pest or weed control at 500 ppm with Puccinia recondita fell in the range of 90 to 100%; in the data set on Uromyces appendiculatus, 90 to 100%; in the data set with Sphaerotheca fuliginea it was 90 to 100%; in the data set with Septoria tritici it was 90 to 100%; with Fusarium graminearum, 80 to 89%; in [2], 90 to 100%. The compound also had a chromatographic logP in data set [1] of 3.1.

As to `OC(Cc1ccc(Cl)cc1Cl)(Cn1cncc1Cl)C1(Cl)CC1` (stereo not drawn) [Example I-69], the pest or weed control at 500 ppm in the data set with Botrytis cinerea is 80 to 89%; in the data set on Puccinia recondita, 80 to 89%; in the data set on Uromyces appendiculatus, 90 to 100%; in the data set on Pyrenophora teres, 80 to 89%; with Alternaria brassicae, 70 to 79%; in the data set on Sphaerotheca fuliginea it was 90 to 100%. The pest or weed control at 500 ppm with Septoria tritici was 80 to 89%. Moreover, the pest or weed control at 100 ppm in the data set with Venturia inaequalis, in the data set on Alternaria solani and in the data set with Phakopsora pachyrhizi was 90 to 100% in each case.

Take `N#Cc1cncn1CC(O)(Cc1ccccc1Cl)CC1CC1` (stereo not drawn) [Example I-84]: the pest or weed control at 500 ppm in the data set with Puccinia recondita lay within 90 to 100%; in the data set with Uromyces appendiculatus, 90 to 100%; with Pyricularia oryzae, 70 to 79%; in the data set on Pyrenophora teres it was 80 to 89%; in the data set on Sphaerotheca fuliginea it was 90 to 100%; with Septoria tritici it was 90 to 100%. In [2], the pest or weed control at 500 ppm was 90 to 100%. The compound also registered a chromatographic logP in data set [1] of 2.84.

For `N#Cc1cncn1CC(O)(Cc1ccncc1C(F)(F)F)C1(Cl)CC1` (stereo not drawn) [Example I-92], the pest or weed control at 500 ppm was 80 to 89% with Puccinia recondita; 90 to 100% in the data set with Uromyces appendiculatus; 80 to 89% with Pyricularia oryzae; 90 to 100% in the data set on Sphaerotheca fuliginea; 90 to 100% in the data set on Septoria tritici; 90 to 100% in data set [2]. Further, the chromatographic logP in [1] is 2.18.

As to `N#Cc1cncn1CC(O)(Cc1ccc(F)c(Cl)c1F)C1(Cl)CC1` (stereo not drawn) [Example I-101], the pest or weed control at 500 ppm (in the data set with Puccinia recondita; with Uromyces appendiculatus; in the data set on Pyrenophora teres; in the data set on Sphaerotheca fuliginea; with Septoria tritici; in [2]) was 90 to 100% throughout. Further, the pest or weed control at 100 ppm in the data set with Venturia inaequalis is 80 to 89%; in the data set on Alternaria solani, 90 to 100%; in the data set with Phakopsora pachyrhizi it was 90 to 100%. In addition, the chromatographic logP in data set [1] was found to be 3.17.

`Cc1ccc(CC(O)(Cn2cncc2C#N)C2(Cl)CC2)c(F)c1` (stereo not drawn) [Example I-107]: the pest or weed control at 500 ppm with Botrytis cinerea was in the range of 90 to 100%; in the data set with Puccinia recondita, 80 to 89%; in the data set with Uromyces appendiculatus, 80 to 89%; with Pyrenophora teres, 90 to 100%; in the data set with Sphaerotheca fuliginea, 90 to 100%; in the data set on Septoria tritici, 90 to 100%. Also, the pest or weed control at 100 ppm in the data set on Venturia inaequalis lay within 80 to 89%; in the data set on Alternaria solani, 90 to 100%; with Phakopsora pachyrhizi, 80 to 89%. The chromatographic logP in [1] turned out to be 2.97.

As for `Cc1cc(F)ccc1CC(O)(Cn1cncc1C#N)C1(Cl)CC1` (stereo not drawn) [Example I-153], the pest or weed control at 500 ppm with Puccinia recondita is 90 to 100%; in the data set on Uromyces appendiculatus it was 90 to 100%; with Pyrenophora teres, 80 to 89%; with Sphaerotheca fuliginea, 90 to 100%; in the data set with Septoria tritici, 90 to 100%. Moreover, the figures for the pest or weed control at 100 ppm with Venturia inaequalis, in the data set with Alternaria solani and in the data set with Phakopsora pachyrhizi were 80 to 89%, 90 to 100% and 90 to 100%, respectively.

With `Cc1cc(F)ccc1CC(O)(Cn1cncc1Cl)C1(Cl)CC1` (stereo not drawn) [Example I-155], the pest or weed control at 500 ppm in the data set with Botrytis cinerea is 90 to 100%; in the data set on Puccinia recondita, 80 to 89%; in the data set with Uromyces appendiculatus it was 90 to 100%; in the data set on Pyrenophora teres it was 70 to 79%; with Alternaria brassicae it was 70 to 79%; in the data set on Sphaerotheca fuliginea it was 90 to 100%. In addition, in the data set with Septoria tritici, the pest or weed control at 500 ppm fell in the range of 90 to 100%. In addition, the pest or weed control at 100 ppm with Venturia inaequalis, in the data set with Alternaria solani and in the data set with Phakopsora pachyrhizi was 90 to 100% in each case. Also, the chromatographic logP in data set [1] worked out at 2.46.

On to `N#Cc1cncn1CC(O)(Cc1cc(F)cc(F)c1)C1(Cl)CC1` (stereo not drawn) [Example I-156], for which the pest or weed control at 500 ppm was 90 to 100% with Puccinia recondita; 90 to 100% with Uromyces appendiculatus; 80 to 89% with Pyrenophora teres; 90 to 100% in the data set on Sphaerotheca fuliginea; 90 to 100% in the data set on Septoria tritici; 80 to 89% with Fusarium graminearum. Moreover, the pest or weed control at 500 ppm in data set [2] was 90 to 100%. In data set [1], the chromatographic logP is 2.86.

With `OC(Cc1ccc(F)cc1)(Cn1cncc1Cl)C1(Cl)CC1` (stereo not drawn) [Example I-158], the pest or weed control at 500 ppm fell in the range of 90 to 100% in the data set with Botrytis cinerea; 80 to 89% with Puccinia recondita; 90 to 100% with Uromyces appendiculatus; 90 to 100% with Pyrenophora teres; 90 to 100% in the data set on Sphaerotheca fuliginea; 90 to 100% in the data set on Septoria tritici. Further, the pest or weed control at 100 ppm with Alternaria solani and with Phakopsora pachyrhizi was 90 to 100% in each case. The compound further gave a chromatographic logP in data set [1] of 2.13.

Consider `N#Cc1cncn1CC(O)(Cc1cc(F)ncc1Cl)C1(Cl)CC1` (stereo not drawn) [Example I-165], for which the pest or weed control at 500 ppm (with Puccinia recondita; in the data set on Uromyces appendiculatus; in the data set on Pyricularia oryzae; with Sphaerotheca fuliginea; in the data set on Septoria tritici; in data set [2]) was 90 to 100% throughout. In data set [1], this compound returned a chromatographic logP of 2.38.
